In ChEMBL document CHEMBL3988442, “University of Dundee, Small-Polar-MMV Screening Library” (2021):

Assays:
[1] = microbe, parasite or virus in culture; conditions: Mycobacterium tuberculosis, 72 h, read-out: pIC50 (converted)
[2] = microbe, parasite or virus in culture; conditions: Mycobacterium tuberculosis, 96 h, read-out: pIC50 (converted)

Compound	IC50 [1] [µM]	IC50 [2] [µM]
CCCNc1nnc(SCC(C)(C)O)s1	297	159
Cc1cc(C)n(CC(=O)NCc2ccc(F)cc2)n1	216	> 501
NCc1noc2c1CCCC2	> 501	> 501
Cc1ccc(S(=O)(=O)NCCN)cc1C(F)(F)F	102	> 501
O=C(NC1CCCOc2ccccc21)c1ccncc1 (stereo not given)	> 501	> 501
CN(C)S(=O)(=O)N1CCCC1c1ccccc1Br (stereo not given)	206	273
Cc1csc(NC(=O)NC(CO)CC(C)C)n1 (stereo not given)	341	289
NCc1nc(-c2cccc(Cl)c2)no1	323	> 501
COCCOC1CCN(c2cccc(C)n2)CC1	245	366
CN(Cc1ccco1)CC(O)COCc1cccs1 (stereo not given)	235	188
CC(C)N(C)S(=O)(=O)N1CCc2sccc2C1C (stereo not given)	150	207
Cc1ccc(NC(=O)C(C)N2CCC(O)CC2)cc1F (stereo not given)	200	284
O=S(=O)(CCN1CC[C@@H](O)C1)c1cccc(Br)c1	112	146
NCCCOC1CCN(C(=O)c2ccc(Br)o2)CC1	76.7	> 501
CC(C)(O)CSc1nnc(NCc2ccco2)s1	118	55.2
CCSc1nc2ccccc2c(=O)n1CCCO	181	278
CNC(=O)NC(=O)CSc1ccccc1F	> 501	> 501
Cc1csc(N2CCCN(C(=O)c3cnsn3)CC2)n1	284	> 501
C=C(C)CN1C(=O)Nc2ccccc2S1(=O)=O	349	> 501
COC(=O)CCNS(=O)(=O)c1ccc(OC)cc1	> 501	> 501
COc1ccc(CCN)c(O)c1	153	435
CN1CCN(C(=O)c2cc3ccccc3o2)CC1	207	203
CC(C)c1ccccc1OCC(O)CN(C)CCO (stereo not given)	123	257
CCOC(=O)c1cnc(N2CCNCC2)s1	256	240
O=C1OCCC1Sc1nnc(Nc2ccccc2)s1 (stereo not given)	455	> 501
Cn1nnnc1SCCOc1cccc(F)c1	412	87.9
CCNC(=O)CN(CC)S(=O)(=O)c1ccc(C)cc1	295	> 501
CSCc1cc(F)ccc1CNC(=O)c1cn[nH]c1C	> 501	> 501

Compound	IC50 [1] [µM]	IC50 [2] [µM]
Cn1c(=O)c2c(nc(Cl)n2CCCC#N)n(C)c1=O	> 501	> 501
CCc1ccc(CN2CCN(C(=O)N(C)C)CC2)o1	206	> 501
c1ccc(CN2CCCN(c3ccccn3)CC2)nc1	196	236
COCCNc1nc(-c2ccc(S(N)(=O)=O)cc2)cs1	207	> 501
NC(=O)Nc1cccc(C(=O)Nc2ccc(Cl)cn2)c1	126	132
CN(CCOc1ccc(Cl)cc1)C(=O)C(C)(C)CN	216	276
O=C(NCCn1cccc1)c1[nH]nc2c1CCCC2	248	> 501
CC(NS(=O)(=O)N(C)C1CCCCC1)c1ccccn1 (stereo not given)	75.6	159
Cc1cc(C(=O)N2CCC(C(N)=O)C2)cc(Cl)c1Br (stereo not given)	180	262
N[C@@H]1C[C@H]1c1ccc2c(c1)OCCO2	> 501	196
CN(C)S(=O)(=O)c1ccc(COC(=O)C2CC2)o1	> 501	338
CCC(C)(C)NC(=O)CNc1ccc2c(c1)OCCO2	95.2	75.9
Cc1ccc(C(N)=O)cc1NCC(C)C	> 501	> 501
CNc1nnc(-c2ccccc2)s1	> 501	> 501
N#CC1(C(=O)NCc2ccccc2F)CC1	> 501	> 501
O=C(Nc1cc(F)cc(F)c1)c1ccncc1	224	> 501
Cn1cc(CC(=O)Nc2ccc(I)cn2)cn1	283	> 501
N#Cc1ccc(NCCOc2ccccc2)nc1	95.3	48.4
Cc1nnc(SC[C@H](O)COCc2ccccc2)s1	209	133
CN(C)c1cc(CN)c2ccccc2n1	97.3	132
O=C(c1cc(C2CC2)on1)N1CC(O)(C2CC2)C1	47.3	44.5
COc1ccc(CCNc2ccc3nnnn3n2)cc1	> 501	> 501
NCc1nc(-c2ccc(Cl)cc2)c[nH]1	128	264
O=C(NCc1ccnc(N2CCCC2)c1)c1ccsc1	114	141
COCCNc1ccc(OC)c(OC)c1	257	> 501
NS(=O)(=O)N1CCN(CC=Cc2ccc(F)cc2)CC1	233	> 501
NC1CCCN(S(=O)(=O)C=Cc2cccc(Cl)c2)C1 (stereo not given)	216	257
